Test results from patent US20120276225A1, “PHYTOESTROGENIC NUTRACEUTICAL COMPOSITION FROM PALM LEAF EXTRACT” (UNIVERSITI PUTRA MALAYSIA, priority 2009, published 2012).

Columns and labels:
[1] = tested on: vaginal epithelium in the immature female mice; conditions: cited from earlier work
[2] = tested on: vaginal epithelium and uterus of ovarectomized female Sprague-Dawley rats; assay: Estrogenic activity in bilaterally ovarectomized rats (vaginal cornification, uterine wet weight); assay type: in vivo, rat; conditions: positive control gavaged daily 5 mg/kg BW
Protocol: Phytoestrogenic enhancing activities of PLE were evaluated in normal and ovariectomised rats at 150 and 300 mg/kg doses. Estrogenic activity of the alcoholic extract was assessed in bilaterally ovarectomized female Sprague-Dawley rats taking percentage vaginal cornification, and uterine wet weight as parameters of assessment. Ovarectomized female rats (9 rats per group) given distilled water were used as a negative control, while rats gavaged daily with 5 mg/kg BW diethylstilbesterol were used as a positive control. At the end of treatment period of 14 days, rats were euthanized; the uteri were dissected and weighed, thereafter.

SMILES | cornification of the vaginal epithelium [1] | cornification of the vaginal epithelium [2]
CC1(C)[C@H]2C(=COc3cc(O)ccc32)[C@]2(O)C(=O)C[C@]3(O)C[C@H]1[C@H]2[C@H]3O [Miroestrol] | produced cornification of the vaginal epithelium | 
CC/C(=C(/CC)c1ccc(O)cc1)c1ccc(O)cc1 [synthetic estrogen, diethylstilbesterol] |  | induced a cornification of the vaginal epithelium as early as the third day of treatment
